Test results as given in patent US20050245563A1 (Millennium Pharmaceuticals, Inc., priority 2003, published 2005).
Structures can show the parent of a compound that is named as a salt.

Target: T1, human Chk1 (GST-Chk1) (Homo sapiens, UniProt O14757)
T1 construct: made in house; host or cells: insect cells (baculovirus, Bac-to-Bac)
T1 sequence (O14757 1-476): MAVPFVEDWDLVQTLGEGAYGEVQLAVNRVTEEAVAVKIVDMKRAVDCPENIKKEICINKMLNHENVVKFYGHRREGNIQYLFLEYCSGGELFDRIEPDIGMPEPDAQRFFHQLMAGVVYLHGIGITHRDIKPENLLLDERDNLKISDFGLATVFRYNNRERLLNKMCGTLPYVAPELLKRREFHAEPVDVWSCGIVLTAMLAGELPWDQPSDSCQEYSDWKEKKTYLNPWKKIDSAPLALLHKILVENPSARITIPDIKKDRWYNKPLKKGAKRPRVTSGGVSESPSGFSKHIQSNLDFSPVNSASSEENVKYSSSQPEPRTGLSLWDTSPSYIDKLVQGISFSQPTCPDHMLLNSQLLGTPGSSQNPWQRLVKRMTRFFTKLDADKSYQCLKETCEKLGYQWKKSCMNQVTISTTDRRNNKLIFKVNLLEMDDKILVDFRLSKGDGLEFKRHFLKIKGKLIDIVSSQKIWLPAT
Experiment: Chk1 DELFIA kinase assay (2 nM GST-Chk1, 600 μM ATP)
Assay type: biochemical
Details: Biotin-GLYRSPSMPEN-amide substrate
Method in brief: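 Enzyme is N-terminal GST-Chk1 from baculovirus/insect cells, assayed with 1 μM biotin-GLYRSPSMPEN-amide in pH 7.5 Tris buffer, 4% DMSO and 10 mM MgCl2 for 50 min at room temperature. EDTA-stopped reactions were captured on NeutrAvidin. Phospho-peptide was detected by anti-phospho-Ser216-Cdc25c antibody with europium-labeled secondary and time-resolved fluorescence.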

Row | Structure (SMILES) | IC50 [nM]
1 | CCc1ccc2c(c1)c1n[nH]c(C)c1c(=O)n2CCCNC [Example 300, 8-Ethyl-3-methyl-5-(3-methylamino-propyl)-2,5-dihydro-pyrazolo[4,3-c]quinolin-4-one] | < 1000
2 | Cc1[nH]nc2c1c(=O)n(CCCN)c1ccc(CCCO)cc21 [Example 301, 5-(3-Amino-propyl)-8-(3-hydroxy-propyl)-3-methyl 2,5-dihydro-pyrazolo[4,3-c]quinolin-4-one] | < 1000
3 | CCCc1ccc2c(c1)c1n[nH]c(C)c1c(=O)n2CCCN [Example 302, 5-(3-Amino-propyl)-3-methyl-8-propyl-2,5-dihydro-pyrazolo[4,3-c]quinolin4-one] | < 1000
4 | C#Cc1ccc2c(c1)c1n[nH]c(C)c1c(=O)n2C[C@H]1CCCNC1 [Example 303, 8-Ethynyl-3-methyl-5-piperidin-3-ylmethyl-2,5-dihydro-pyrazolo[4,3-c]quinolin-4-one] | < 1000
5 | C#Cc1ccc2c(c1)c1n[nH]c(CC)c1c(=O)n2CCCNC [Example 304, 8-Ethynyl-3-ethyl-5-(3-methylamino-propyl)-2,5-dihydro-pyrazolo[4,3-c]quinolin-4-one] | < 1000
6 | COCCc1[nH]nc2c1c(=O)n(CCCN)c1ccc(C#CCN3CCCC3)cc21 [Example 305, 5-(3-Amino-propyl)-3-(2-methoxy-ethyl)-8-(3-pyrrolidin-1-yl-prop-1-ynyl)-2,5-dihydro-pyrazolo[4,3-c]quinolin-4-one] | < 1000
7 | Cc1[nH]nc2c1c(=O)n(CCCN)c1ccc(-c3ccc(C#N)cc3)cc21 [Example 306, 4-[5-(3-Amino-propyl)-3-methyl-4-oxo-4,5-dihydro-2H-pyrazolo[4,3-c]quinolin-8-yl]-benzonitrile] | < 1000
8 | Cc1[nH]nc2c1c(=O)n(CCCN)c1ccc(-c3ccc(N(C)C)cc3)cc21 [Example 307, 5-(3-Amino-propyl)-8-(4-dimethylamino-phenyl)-3-methyl-2,5-dihydro-pyrazolo [4,3-c]quinolin-4-one] | < 1000
9 | Cc1[nH]nc2c1c(=O)n(CCCN)c1ccc(-c3cccnc3)cc21 [Example 308, 5-(3-Amino-propyl)-3-methyl-8-pyridin-3-yl-2,5-dihydro-pyrazolo[4,3-c]quinolin-4-one] | < 1000
10 | Cc1[nH]nc2c1c(=O)n(CCCN)c1ccc(-c3ccoc3)cc21 [Example 309, 5-(3-Amino-propyl)-8-furan-3-yl-3-methyl-2,5-dihydro-pyrazolo[4,3-c]quinolin-4-one] | < 1000
11 | Cc1[nH]nc2c1c(=O)n(CCCN)c1ccc(N3CCCC3)cc21 [Example 310, 5-(3-Amino-propyl)-3-methyl-8-pyrrolidin-1-yl-2,5-dihydro-pyrazolo[4,3-c]quinolin-4-one] | < 1000
12 | CCc1[nH]nc2c1c(=O)n(CCCN)c1ccc(Cl)cc21 [Example 311, 5-(3-Amino-propyl)-8-chloro-3-ethyl-2,5-dihydro-pyrazolo[4,3-c]quinolin-4-one hydrochloride] | < 1000
13 | CCOCCc1[nH]nc2c1c(=O)n(CCCN)c1ccc(Cl)cc21 [Example 320, 5-(3-Amino-propyl)-8-chloro-3-(2-ethoxy-ethyl)-2,5-dihydro-pyrazolo[4,3-c]quinolin-4-one] | < 1000
14 | CCCOCCc1[nH]nc2c1c(=O)n(CCCN)c1ccc(Cl)cc21 [Example 321, 5-(3-Amino-propyl)-8-chloro-3-(2-propoxy-ethyl)-2,5-dihydro-pyrazolo[4,3-c]quinolin-4-one] | < 1000
15 | CCCCOCCc1[nH]nc2c1c(=O)n(CCCN)c1ccc(Cl)cc21 [Example 322, 5-(3-Amino-propyl)-3-(2-butoxy-ethyl)-8-chloro-2,5-dihydro-pyrazolo[4,3-c]quinolin-4-one] | < 1000
16 | NCCCn1c(=O)c2c(C3CCOC3)[nH]nc2c2cc(Cl)ccc21 (stereo not shown) [Example 327, 5-(3-Amino-propyl)-8-chloro-3-(tetrahydro-furan-3-yl)-2,5-dihydro-pyrazolo[4,3-c]quinolin-4-one] | < 1000
17 | NCCCn1c(=O)c2c(CCO)[nH]nc2c2cc(C#CCN3CCCC3)ccc21 [Example 328, 5-(3-Amino-propyl)-3-(2-hydroxy-ethyl)-8-(3-pyrrolidin-1-yl-prop-1-ynyl)-2,5-dihydro-pyrazolo [4,3-c]quinolin-4-one] | < 1000
18 | CCc1[nH]nc2c1c(=O)n(CCCN)c1ccc(C#CCN3CCCC3)cc21 [Example 329, 5-(3-Amino-propyl)-3-ethyl-8-(3-pyrrolidin-1-yl-prop-1-ynyl)-2,5-dihydro-pyrazolo[4,3-c]quinolin-4-one] | < 1000
19 | CCc1[nH]nc2c1c(=O)n(CCCN)c1ccc(CCCN3CCCC3)cc21 [Example 330, 5-(3-Amino-propyl)-3-ethyl-8-(3-pyrrolidin-1-yl-propyl)-2,5-dihydro-pyrazolo[4,3-c]quinolin-4-one] | < 1000

Row | Structure (SMILES) | IC50 [nM]
20 | CCc1[nH]nc2c1c(=O)n(CCCNC)c1ccc(Cl)cc21 [Example 331, 8-Chloro-3-ethyl-5-(3-methylamino-propyl)-2,5-dihydro-pyrazolo[4,3-c]quinolin4-one] | < 1000
21 | Cc1[nH]nc2c1c(=O)n(CCCNC(=O)c1ccc(Cl)cc1)c1ccc(C#CCN3CCCC3)cc21 [Example 332, 4-Chloro-N-{3-[3-methyl-4-oxo-8-(3-pyrrolidin-1-yl-prop-1-ynyl)-2,4-dihydro-pyrazolo[4,3-c]quinolin-5-yl]-propyl}-benzamide] | < 1000
22 | Cc1[nH]nc2c1c(=O)n(CCCNC(=O)c1ccc(Cl)cc1)c1ccc(CCCN3CCCC3)cc21 [Example 333] | < 1000
23 | Cc1[nH]nc2c1c(=O)n(CCCN)c1cc(C(=O)NCCN(C)C)ccc21 [Example 335, 5-(3-Amino-propyl)-3-methyl-4-oxo-4,5-dihydro-2H-pyrazolo[4,3-c]quinoline-7-carboxylic acid (2-dimethylamino-ethyl)-amide] | < 1000
24 | Cc1[nH]nc2c1c(=O)n(CCCN)c1cc(C(=O)NCCN3CCCC3)ccc21 [Example 336, 5-(3-Amino-propyl)-3-methyl-4-oxo-4,5-dihydro-2H-pyrazolo[4,3-c]quinolin-7-carboxylic acid (2-pyrrolidin-1-yl-ethyl)-amide] | < 1000
25 | Cc1[nH]nc2c1c(=O)n(CCCN)c1cc(C(=O)NCCCN(C)C)ccc21 [Example 337] | < 1000
26 | Cc1[nH]nc2c1c(=O)n(CCCN)c1cc(C(=O)NCCCCN(C)C)ccc21 [Example 338] | < 1000
27 | Cc1[nH]nc2c1c(=O)n(CCCN)c1cc(I)ccc21 [Example 339, 5-(3-Aminopropyl)-7-iodo-3-methyl-2,5-dihydro-pyrazolo[4,3-c]quinolin4-one] | < 1000
28 | Cc1[nH]nc2c1c(=O)n(CCCN)c1cc(C#CCN3CCCC3)ccc21 [Example 340, 5-(3-Amino-propyl)-3-methyl-7-(3-pyrrolidin-1-yl-prop-1-ynyl)-2,5-dihydro-pyrazolo [4,3-c]quinolin-4-one] | < 1000
29 | Cc1[nH]nc2c1c(=O)n(CCCN)c1cc(CCCN3CCCC3)ccc21 [Example 341, 5-(3-Amino-propyl)-3-methyl-7-(3-pyrrolidin-1-yl-propyl)-2,5-dihydro-pyrazolo[4,3-c]quinolin-4-one] | < 1000
30 | Cc1[nH]nc2c1c(=O)n(C)c1c(C#CCN)cc(Cl)cc21 [Example 342, 6-(3-amino-prop-1-ynyl)-8-chloro-3,5-dimethyl-2,5-dihydro-pyrazolo[4,3-c]quinolin-4-one] | < 1000
31 | Cc1[nH]nc2c1c(=O)n(CCCN)c1ccc(C(=O)NCCN(C)C)cc21 [Example 352, 5-(3-Amino-propyl)-3-methyl-4-oxo-4,5-dihydro-2H-pyrazolo[4,3-c]quinoline-8-carboxylic acid (2-dimethylamino-ethyl)-amide] | < 1000
32 | Cc1[nH]nc2c1c(=O)n(CCCN)c1ccc(CCc3cccnc3)cc21 [Example 353, 5-(3-Amino-propyl)-3-methyl-8-(2-pyridin-3-yl-ethyl)-2,5-dihydro-pyrazolo[4,3-c]quinolin-4-one] | < 1000
33 | COCCc1[nH]nc2c1c(=O)n(CCCN)c1ccc(C)cc21 [Example 354, 5-(3-Amino-propyl)-3-(2-methoxy-ethyl)-8-methyl-2,5-dihydro-pyrazolo[4,3-c]quinolin-4-one] | < 1000
34 | NCCCn1c(=O)c2c(CCOCc3ccccc3)[nH]nc2c2cc(Cl)ccc21 [Example 362, 5-(3-Amino-propyl)-3-(2-benzyloxy-ethyl)-8-chloro-2,5-dihydro-pyrazolo[4,3-c]quinolin-4-one] | < 1000
35 | CCc1ccc2c(c1)c1n[nH]c(CCO)c1c(=O)n2CCCO [Example 363, 8-Ethyl-3-(2-hydroxy-ethyl)-5-(3-hydroxy-propyl)-2,5-dihydro-pyrazolo[4,3-c]quinolin-4-one] | < 1000
36 | CCCc1[nH]nc2c1c(=O)n(CCCN)c1ccc(Cl)cc21 [Example 364, 5-(3-Amino-propyl)-8-chloro-3-propyl-2,5-dihydro-pyrazolo[4,3-c]quinolin-4-one] | < 1000
37 | NCCCn1c(=O)c2c(C3CCCC3)[nH]nc2c2cc(Cl)ccc21 [Example 365, 5-(3-Amino-propyl)-8-chloro-3-cyclopentyl-2,5-dihydro-pyrazolo[4,3-c]quinolin4-one] | < 1000
